Each structure is given as a SMILES string. Where two headings read alike, the source gives them in different places.

The target of one experiment is T1, GPR132 (Homo sapiens, UniProt Q9UNW8).
T1 construct: expressed in transfected cells; host or cells: HEK293 cells (transient co-transfection)
T1 sequence (Q9UNW8 1-380): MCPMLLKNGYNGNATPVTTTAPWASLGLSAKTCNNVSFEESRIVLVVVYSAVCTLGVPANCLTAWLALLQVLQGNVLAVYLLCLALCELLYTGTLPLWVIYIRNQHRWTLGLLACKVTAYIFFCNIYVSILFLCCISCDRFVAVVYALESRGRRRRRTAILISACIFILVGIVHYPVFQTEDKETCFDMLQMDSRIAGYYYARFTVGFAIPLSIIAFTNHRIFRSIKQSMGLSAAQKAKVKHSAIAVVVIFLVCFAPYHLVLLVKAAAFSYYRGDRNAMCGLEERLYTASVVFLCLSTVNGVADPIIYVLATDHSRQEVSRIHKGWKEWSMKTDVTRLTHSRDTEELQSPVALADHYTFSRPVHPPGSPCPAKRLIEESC
The experiment is described as follows: G protein activation (Gi BRET probes, GPR132 co-transfected in HEK293 cells). The conditions noted are these: stimulated 2 minutes, read-out: GPR132 EC50 (GPR132 agonist activity). Format: cell-based. The procedure: Gi BRET probes were generated according to previous literature (Olsen et al., 2020), and included Gαi-RLuc8, Gβ3, and Gγ9-GFP2. GPR132 and Gi BRET probes were transiently co-transfected in HEK293 cells. 24 hours after transfection, the cells were distributed into 96-well microplates at a density of 5×10^4 cells per well and cultured for another 24 hours. The cells were washed twice with Tyrode buffer and stimulated with compound ligands at different concentrations (10^−12 to 10^−5 M) for 2 minutes. After adding coelenterazine, the substrate of luciferase, 400a (5 μM), BRET signal was measured using a Mithras LB940 microplate reader equipped with a BRET filter set. The BRET signal was calculated as the emission light ratio at 510 nm/400 nm.
The compounds with lower EC50 values in the above experiments had good GPR132 agonist activity.
On the technique in general: BRET reads energy transfer from a luciferase to a nearby fluorophore.

Another experiment concerns TNF-α. The experiment is described as follows: Determination of level of tumor necrosis factor (TNF-α) as cell inflammatory marker, ELISA, LPS-treated HepG2 cells. Format: cell-based. To be noted: Homo sapiens, 48 h of drug administration, read-out: EC50 (activity in reducing TNF-α). The procedure:
HepG2 cells were inoculated in 96-well plates at a density of 30%. After incubation for 18 h to allow the cells to adhere to wall, the original culture medium was removed, and each well of the drug group was added with LPS culture medium (LPS concentration was […]), the control group was added with an equal amount of DMSO, and incubation was performed overnight. […] Three replicate wells were set for each compound. After 48 h of drug administration, the cell supernatant was collected with a sterile tube, and centrifuged for about 20 minutes (2000 to 3000 rpm). The supernatant was carefully collected. The TNF-α level was then determined using ELISA method. The specific steps were as follows: • Standard sample addition: Standard sample wells and sample wells were set, and 50 μL of standard sample at different concentrations was added to each standard sample well. • Sample addition: Blank wells (blank control wells was not added with sample and ELISA reagent, and the rest operations were the same) and test sample wells were set. First, 40 μL of sample diluent was added to each test sample well on an ELISA plate, and then 10 μL of the sample to be tested (the final dilution ratio of sample was 5) was added. The sample was added to the bottom of the well of the ELISA plate, not touching the well wall as much as possible, and then the gentle shaking was carried out for mixing. • Enzyme addition: 100 μL of ELISA reagent was added to each well, except for the blank wells. • Incubation: The plate was sealed with a sealing film and incubated at 37° C. for 60 minutes. • Solution preparation: 20-Fold concentrated washing solution was diluted by 20-fold with distilled water for later use. • Washing: The sealing film was carefully peeled off, the liquid was discarded, the plate was spin-dried; each well was filled with the washing solution, allowed to stand for 30 seconds and then the washing solution was discarded. This operation was repeated 5 times, and pat-drying was performed. • Color development: First, 50 μL of color developer A was added to each well, then 50 μL of color developer B was added, gently shaken and mixed, and color development was performed at 37° C. in the dark for 15 minutes. • Termination: 50 μL of termination liquid was added to each well to stop the reaction (the blue color immediately turned yellow). • Determination: Zero was set with the blank well, and the absorbance (OD value) at 450 nm of each well was measured in sequence. The determination should be performed within 15 minutes after adding the termination liquid.
TNF-α content in the sample to be tested could be calculated by drawing a standard curve based on the standard samples. TNF-α reduction rate was further calculated. The formula for calculating TNF-α reduction was Reduction rate (%)=TNF-α contentcontrol−TNF-α contentto be tested/TNF-α contentcontrol×100.
In the above experiment, the compounds with higher TNF-α reduction rate and lower EC50 value could better reduce the level of inflammation.

For `Cc1c(C(=O)O)oc2ccc(NC(=O)CCc3ccccc3)cc12` [Example 16], the EC50 at GPR132 worked out at 6500 nM; with TNF-α, 10200 nM.

For `Cc1c(C(=O)O)oc2ccc(NC(=O)/C=C/c3ccccc3)cc12` [Example 17], the EC50 on GPR132 (class symbols) fell in the range of 10 to 1000 nM; in the experiment with TNF-α (class symbols), 10 to 10000 nM.

On to `Cc1c(C(=O)O)oc2ccc(NC(=O)/C=C/c3cccc(I)c3)cc12` [Example 18, (E)-5-(3-(3-IODOPHENYL)ACRYLAMIDO)-3-METHYLBENZOFURAN-2-CARBOXYLIC ACID], for which the results for the EC50 on GPR132 and with TNF-α were 510 nM and 1000 nM, respectively.

For `Cc1c(C(=O)O)oc2ccc(NC(=O)[C@H]3C[C@H]3c3ccccc3)cc12` [Example 19, 3-METHYL-5-((1S,2R)-2-PHENYLCYCLOPROPANE-1-CARBOXAMIDO) BENZOFURAN-2-CARBOXYLIC ACID], the figures for the EC50 on GPR132 (class symbols) and in the experiment on TNF-α (class symbols) were 1000 to 10000 nM and 10000 to 50000 nM, respectively.

Turning to `Cc1c(C(=O)O)oc2ccc(NC(=O)CCC(=O)c3ccccc3)cc12` [Example 20], the EC50 on GPR132 (class symbols) lay within 10 to 1000 nM; with TNF-α (class symbols), 10 to 10000 nM.

Consider `Cc1c(C(=O)O)oc2ccc(NC(=O)CCCCc3ccccc3)cc12` [Example 21, 3-METHYL-5-(5-PHENYLVALERAMIDO)BENZOFURAN-2-CARBOXYLIC ACID], for which the EC50 fell in the range of 1000 to 10000 nM on GPR132 (class symbols) and 10 to 10000 nM in the experiment with TNF-α (class symbols).

With `Cc1c(C(=O)O)oc2ccc(OCCCc3ccccc3)cc12` [Example 22, 3-METHYL-5-(3-PHENYLPROPOXY)BENZOFURAN-2-CARBOXYLIC ACID], the EC50 at GPR132 (class symbols) was 10 to 1000 nM; with TNF-α (class symbols) it was 10 to 10000 nM.

For the compound `Cc1c(C(=O)O)oc2ccc(S(=O)(=O)N(CCc3ccccc3)Cc3ccccc3)cc12` [Example 23, 3-METHYL-5-(N-BENZYL-N-PHENYLETHYLSULFAMOYL)BENZOFURAN-2-CARBOXYLIC ACID], the EC50 at GPR132 stood at 3800 nM; with TNF-α it was 5900 nM.

Turning to `Cc1c(C(=O)O)oc2ccc(S(=O)(=O)N(CCc3ccccc3)Cc3ccc(Br)cc3)cc12` [Example 24, 3-METHYL-5-(N-(4-BROMOBENZYL)-N-PHENYLETHYLSULFAMOYL)BENZOFURAN-2-CARBOXYLIC ACID], the EC50 at GPR132 worked out at 300 nM; in the experiment on TNF-α it was 700 nM.

`Cc1c(C(=O)O)oc2ccc(S(=O)(=O)N(CCc3ccccc3)Cc3ccc(C(=O)OC(C)(C)C)cc3)cc12` [Example 25, 3-METHYL-5-(N-(4-(TERT-BUTYLOXYCARBONYL)BENZYL)-N-PHENYLETHYLSULFAMOYL) BENZOFURAN-2-CARBOXYLIC ACID]: the EC50 at GPR132 (class symbols) was in the range of 10 to 1000 nM; with TNF-α (class symbols) it was 10 to 10000 nM.

Regarding `Cc1c(C(=O)O)oc2ccc(S(=O)(=O)N(CCc3ccccc3)Cc3cccc4cccnc34)cc12` [Example 26, 3-METHYL-5-(N-(QUINOLIN-8-YLMETHYL)-N-PHENYLETHYLSULFAMOYL)BENZOFURAN-2-CARBOXYLIC ACID], the EC50 at GPR132 (class symbols) was 1000 to 10000 nM; in the experiment with TNF-α (class symbols) it was 10000 to 50000 nM.

Regarding `Cc1c(C(=O)O)oc2ccc(S(=O)(=O)N(CCc3ccccc3)c3ccccc3)cc12` [Example 27, 3-METHYL-5-(N-PHENETHYL-N-PHENYLSULFAMOYL)BENZOFURAN-2-CARBOXYLIC ACID], the EC50 at GPR132 (class symbols) lay within 1000 to 10000 nM; in the experiment on TNF-α (class symbols), 10000 to 50000 nM.

As to `Cc1c(C(=O)O)oc2ccc(S(=O)(=O)N(CCc3ccccc3)CCc3ccccc3)cc12` [Example 28, 3-Methyl-5-(N,N-diphenylethylsulfamoyl)benzofuran-2-carboxylic acid], the EC50 on GPR132 is 2100 nM; with TNF-α it was 3100 nM.

As for `Cc1c(C(=O)O)oc2ccc(S(=O)(=O)N(CCc3ccccc3)c3ccc(N4CCN(S(C)(=O)=O)CC4)cc3)cc12` [Example 29, 3-METHYL-5-(N-(4-(4-(METHYLSULFONYL)PIPERAZIN-1-YL)PHENYL)-N-PHENYLETHYLSULFAMOYL)BENZOFURAN-2-CARBOXYLIC ACID], the EC50 lay in the range of 1000 to 10000 nM at GPR132 (class symbols) and 10000 to 50000 nM in the experiment with TNF-α (class symbols).

In the case of `Cc1c(C(=O)O)oc2ccc(S(=O)(=O)N(CCc3ccccc3)c3ccc(Oc4ccccc4)cc3)cc12` [Example 30, 3-METHYL-5-(N-(4-PHENOXYPHENYL)-N-PHENYLETHYLSULFAMOYL)BENZOFURAN-2-CARBOXYLIC ACID], the EC50 at GPR132 (class symbols) was in the range of 10 to 1000 nM; in the experiment on TNF-α (class symbols), 10000 to 50000 nM.

In general, EC50 refers to the concentration giving half of the maximal effect.
